Measured values published in US6914045B2, “Glycopeptide antibiotics” (Wyeth Holdings Corporation, priority 2001, dated 2005).
Values after ≈ are worked out from the molar mass of the structure shown.

Tests used:
Assay in all cases: in vitro antibacterial evaluation, MIC by broth dilution
Format in all cases: cell-based
Staphylococcus sp. = conditions: broth dilution, 18 hours at 35° C.
Protocol: (§1) Methods for in vitro Antibacterial Evaluation (Table 1)
(§2) The minimum inhibitory concentration (MIC), the lowest concentration of the antibiotic which inhibits growth of the test organism, is determined by the broth dilution method using Muller-Hinton II […] (Baltimore Biological Laboratories) following the recommendations of the National Committee for Clinical Laboratory Standards [Methods for dilution antimicrobial susceptibility tests for bacteria that grow aerobically, approved standard M7-A2, National Committee for Clinical Laboratory Standards, Villanova, Pa.].
(§3) An inoculum level of 5×10^5 CFU/mL, and a range of antibiotic concentrations (64-0.06 μg/mL) is used. […] The test organisms include a spectrum of Gram-positive bacteria comprised of Staphylococcus sp., Streptococcus sp. and Enterococcus sp. These organisms include recent clinical isolates that are resistant to methicillin, penicillin and/or vancomycin.

Streptococcus sp. = conditions: broth dilution, 18 hours at 35° C.
Protocol: as §1, §2, §3

Enterococcus sp. = conditions: broth dilution, 18 hours at 35° C.
Protocol: as §1, §2, §3

Escherichia coli = conditions: 18 hours at 35° C.

## CC(c1ccccc1)C1NC(=O)CNC(=O)C(CO)NC(=O)C(C(O)C2CNC(=N)N2C2OC(CO)C(O)C(O)C2O)NC(=O)C(C(O)C2CNC(=N)N2)NC(=O)C(Cc2ccc(OC3OC(CO)C(OC4OC5COC6(OC5C(O)C4O)C(C)CCCC6C)C(O)C3O)cc2)NC1=O (stereo not drawn) [Example 206]
Staphylococcus sp.; strain ATCC 29213
  MIC Staphylococcus aureus (ATCC 29213): 1 µg/mL (≈ 0.713 µM)
Staphylococcus sp.; strain GC 1131
  MIC Staphylococcus aureus (GC 1131): 1 µg/mL (≈ 0.713 µM)
Staphylococcus sp.; strain GC 3051
  MIC Staphylococcus aureus (GC 3051): 1 µg/mL (≈ 0.713 µM)
Staphylococcus sp.; strain GC 3053
  MIC Staphylococcus aureus (GC 3053): 1 µg/mL (≈ 0.713 µM)
Staphylococcus sp.; strain GC 4541
  MIC Staphylococcus aureus (GC 4541): 1 µg/mL (≈ 0.713 µM)
Staphylococcus sp.; strain GC 4542
  MIC Staphylococcus aureus (GC 4542): 1 µg/mL (≈ 0.713 µM)
Staphylococcus sp.; strain GC 4543
  MIC Staphylococcus aureus-SMITH (GC 4543): 1 µg/mL (≈ 0.713 µM)
Staphylococcus sp.; strain GC 4544
  MIC Staphylococcus aureus (GC 4544): 1 µg/mL (≈ 0.713 µM)
Staphylococcus sp.; strain GC 4545
  MIC Staphylococcus aureus (GC 4545): 1 µg/mL (≈ 0.713 µM)
Staphylococcus sp.; strain GC 4546
  MIC Staphylococcus haemolyticus (GC 4546): 0.5 µg/mL (≈ 0.356 µM)
Staphylococcus sp.; strain GC 4547
  MIC Coagulase Negative Staphylococcus (GC 4547): 1 µg/mL (≈ 0.713 µM)
Staphylococcus sp.; strain GC 4548
  MIC Coagulase Negative Staphylococcus (GC 4548): 0.5 µg/mL (≈ 0.356 µM)
Staphylococcus sp.; strain GC 4549
  MIC Coagulase Negative Staphylococcus (GC 4549): 0.5 µg/mL (≈ 0.356 µM)
Staphylococcus sp.; strain GC 4551
  MIC Coagulase Negative Staphylococcus (GC 4551): 1 µg/mL (≈ 0.713 µM)
Streptococcus sp.
  MIC Streptococcus agalactiae (GC 4564): 0.25 µg/mL (≈ 0.178 µM)
  MIC Streptococcus pneumoniae (ATCC 6301): <0.12 µg/mL
  MIC Streptococcus pneumoniae (GC 1894): <0.12 µg/mL
  MIC Streptococcus pneumoniae (GC 4565): <0.12 µg/mL
  MIC Streptococcus pyogenes (GC 4563): 1 µg/mL (≈ 0.713 µM)
Streptococcus sp.; inoculum 5×10^5 CFU/mL, strain ATCC 6301
  MIC Streptococcus pneumoniae (ATCC 6301): <0.12 µg/mL
Streptococcus sp.; inoculum 5×10^5 CFU/mL, strain GC 1894
  MIC Streptococcus pneumoniae (GC 1894): <0.12 µg/mL
Streptococcus sp.; inoculum 5×10^5 CFU/mL, strain GC 4563
  MIC Streptococcus pyogenes (GC 4563): 1 µg/mL (≈ 0.713 µM)
Streptococcus sp.; inoculum 5×10^5 CFU/mL, strain GC 4564
  MIC Streptococcus agalactiae (GC 4564): 0.25 µg/mL (≈ 0.178 µM)
Streptococcus sp.; inoculum 5×10^5 CFU/mL, strain GC 4565
  MIC Streptococcus pneumoniae (GC 4565): <0.12 µg/mL
Enterococcus sp.
  MIC Enterococcus avium (GC 4558): 2 µg/mL (≈ 1.43 µM)
  MIC Enterococcus faecalis (ATCC 29212): 1 µg/mL (≈ 0.713 µM)
  MIC Enterococcus faecalis (GC 2242): 2 µg/mL (≈ 1.43 µM)
  MIC Enterococcus faecalis (GC 2691): 2 µg/mL (≈ 1.43 µM)
  MIC Enterococcus faecalis (GC 3059): 1 µg/mL (≈ 0.713 µM)
  MIC Enterococcus faecalis (GC 4552): 2 µg/mL (≈ 1.43 µM)
  MIC Enterococcus faecalis (GC 4553): 2 µg/mL (≈ 1.43 µM)
  MIC Enterococcus faecalis (GC 4554): 2 µg/mL (≈ 1.43 µM)
  MIC Enterococcus faecalis (GC 6189): 1 µg/mL (≈ 0.713 µM)
  MIC Enterococcus faecium (GC 2243): 2 µg/mL (≈ 1.43 µM)
  MIC Enterococcus faecium (GC 4556): 1 µg/mL (≈ 0.713 µM)
  MIC Enterococcus faecium (GC 4557): 2 µg/mL (≈ 1.43 µM)
Enterococcus sp.; inoculum 5×10^5 CFU/mL, strain ATCC 29212
  MIC Enterococcus faecalis (ATCC 29212): 1 µg/mL (≈ 0.713 µM)
Enterococcus sp.; inoculum 5×10^5 CFU/mL, strain GC 2242
  MIC Enterococcus faecalis (GC 2242): 2 µg/mL (≈ 1.43 µM)
Enterococcus sp.; inoculum 5×10^5 CFU/mL, strain GC 2243
  MIC Enterococcus faecium (GC 2243): 2 µg/mL (≈ 1.43 µM)
Enterococcus sp.; inoculum 5×10^5 CFU/mL, strain GC 2691
  MIC Enterococcus faecalis (GC 2691): 2 µg/mL (≈ 1.43 µM)
Enterococcus sp.; inoculum 5×10^5 CFU/mL, strain GC 3059
  MIC Enterococcus faecalis (GC 3059): 1 µg/mL (≈ 0.713 µM)
Enterococcus sp.; inoculum 5×10^5 CFU/mL, strain GC 4552
  MIC Enterococcus faecalis (GC 4552): 2 µg/mL (≈ 1.43 µM)
Enterococcus sp.; inoculum 5×10^5 CFU/mL, strain GC 4553
  MIC Enterococcus faecalis (GC 4553): 2 µg/mL (≈ 1.43 µM)
Enterococcus sp.; inoculum 5×10^5 CFU/mL, strain GC 4554
  MIC Enterococcus faecalis (GC 4554): 2 µg/mL (≈ 1.43 µM)
Enterococcus sp.; inoculum 5×10^5 CFU/mL, strain GC 4556
  MIC Enterococcus faecium (GC 4556): 1 µg/mL (≈ 0.713 µM)
Enterococcus sp.; inoculum 5×10^5 CFU/mL, strain GC 4557
  MIC Enterococcus faecium (GC 4557): 2 µg/mL (≈ 1.43 µM)
Enterococcus sp.; inoculum 5×10^5 CFU/mL, strain GC 4558
  MIC Enterococcus avium (GC 4558): 2 µg/mL (≈ 1.43 µM)
Enterococcus sp.; inoculum 5×10^5 CFU/mL, strain GC 6189
  MIC Enterococcus faecalis (GC 6189): 1 µg/mL (≈ 0.713 µM)
Escherichia coli
  MIC Escherichia coli (ATCC 25922): 32 µg/mL (≈ 22.8 µM)
  MIC Escherichia coli (GC 4559): 32 µg/mL (≈ 22.8 µM)
  MIC Escherichia coli (GC 4560): 1 µg/mL (≈ 0.713 µM)
